# In patent publication US20250250298A1, “ONCOLYTIC PEPTIDE AND USE THEREOF” (Rise Biopharmaceuticals Inc., priority 2022, published 2025):
# Where a SMILES comes first, the peptide text is derived from it. Where no end group is shown, it is not given here.
# Legend:
# [1] = tested on: SAS (Human tongue carcinoma); test: MTT cytotoxicity, SAS; assay type: cell-based; settings: 24 hours incubation
# From the text: (§1) The MTT assay is a colorimetric method for measuring the activity of enzymes in living cells that reduces Thiazolyl blue tetrazolium bromide (MTT) to formazan dyes showing a purple color. In this embodiment, a colorimetric 3-(4.5-dimethylthiazol-2-yl)-2.5-diphenyltetrazodium bromide (MTT) viability assay was used to assess the in vitro cytotoxicity of oncolytic peptides.
# (§2) The half inhibition concentration (IC50) is the concentration required by the oncolytic peptides to reach fifty percent inhibition. In one embodiment, the oncolytic peptides were used for IC50 test via MTT colorimetric assay.
# (§3) All cancer cell lines were seeded in a 96-well plate with a concentration of 5000-8000 cells/100 μl/well and incubated for 24 hrs. After medium was removed, 100 μl fresh medium containing peptide (ranging from 50 μM to 0.8 μM) was added to the wells. Following 24 hours incubation, fresh medium with MTT (0.5 mg/ml) was replaced and incubated for 3 hours. After medium/MTT was removed, DMSO was added at 100 μl for dissolving the formazan crystal. Cell survival rate was calculated by measuring the absorbance at 540 nm using a Multi-labeled Microplate Reader (Sunrise™, TECAN).
# [2] = tested on: HepG2 Cancer Cells (Human hepatocellular carcinoma); test: MTT cytotoxicity, HepG2; assay type: cell-based; settings: HepG2, 24 hours incubation
# From the text: as §1, §2, §3
# [3] = tested on: Hepa I-6 (Murine hepatocellular carcinoma); test: MTT cytotoxicity, Hepa 1-6; assay type: cell-based; settings: Hepa I-6, 24 hours incubation
# From the text: as §1, §2
# (§4) Human lung cancer lines PC9 and A549 and murine pancreatic cancer cell line Panc02 were cultured in RPMI medium supplemented with 10% fetal bovine serum and antibiotic in this embodiment. Additionally, murine hepatoma cell line Hepa 1-6, murine melanoma cell line B16-F10, murine fibrosarcoma cell line MN-11, murine mammary cancer cell line E0771 and human diploid fibroblast (HFW) were cultured in DMEM medium supplemented with 10% fetal bovine serum and antibiotic. Cells were cultured in a humidified incubator containing 5% CO2 at 37° C.
# as §3
# [4] = tested on: PC9 (Human non-small cell lung cancer cell); test: MTT cytotoxicity, PC9; assay type: cell-based; settings: PC9, 24 hours incubation
# From the text: as §1, §2, §4, §3
# [5] = tested on: OECM-1 (Human oral cancer cell); test: MTT cytotoxicity, OECM-1; assay type: cell-based; settings: OECM-1, 24 hours incubation
# From the text: as §1, §2, §3
# [6] = tested on: HUVEC (Human Umbilical Vein Endothelial (Cell)); test: MTT cytotoxicity, HUVEC; assay type: cell-based; settings: 24 hours incubation
# From the text: as §1, §2, §3
# [7] = tested on: RBC (Human blood cell); test: Cytotoxicity, RBC; assay type: cell-based
# From the text: as §2
# [8] = tested on: MN-11 (Murine fibrosarcoma); test: MTT cytotoxicity, MN-11; assay type: cell-based; settings: MN-11, 24 hours incubation
# From the text: as §1, §2, §4, §3
# [9] = Peptide stability in serum; assay type: in vitro ADME; settings: 25% (vol/vol) bovine calf serum
# Protocol: Since this kind of peptide is highly toxic, the hope is that the peptide can be decomposed after inducing cancer cells to release danger-associated molecular patterns (DAMPs), and will not stay in the body for too long. After exposure to 25% (vol/vol) bovine calf serum, the residues of peptides were analyzed by liquid chromatography, and the stability at different time points was calculated.
# [10] = tested on: B16-F10 (Murine skin malignant melanoma); test: MTT cytotoxicity, B16-F10; assay type: cell-based; settings: B16-F10, 24 hours incubation
# From the text: as §1, §2, §4, §3
# [11] = tested on: A549 (Human non-small cell lung cancer cell); test: MTT cytotoxicity, A549; assay type: cell-based; settings: A549, 24 hours incubation
# From the text: as §1, §2, §4, §3
# [12] = tested on: C9 (Human oral cancer cell); test: MTT cytotoxicity, C9; assay type: cell-based; settings: C9, 24 hours incubation
# From the text: as §1, §2, §3
# [13] = tested on: Panc02; test: MTT cytotoxicity, Panc02; assay type: cell-based, murine; settings: Panc02, 24 hours incubation
# From the text: as §1, §2, §4, §3
# [14] = tested on: EO771 (Murine mammary adenocarcinoma); test: MTT cytotoxicity, EO771; assay type: cell-based; settings: EO771, 24 hours incubation
# From the text: as §1, §2, §4, §3
# [15] = tested on: NCI-N87 (Human gastric carcinoma); test: MTT cytotoxicity, NCI-N87; assay type: cell-based; settings: NCI-N87, 24 hours incubation
# From the text: as §1, §2, §3
# [16] = tested on: A375 (human malignant melanoma); test: MTT cytotoxicity, A375; assay type: cell-based; settings: A375, 24 hours incubation
# From the text: as §1, §2, §3
# [17] = tested on: HCT-15 (Human colorectal cancer); test: MTT cytotoxicity, HCT-15; assay type: cell-based; settings: HCT-15, 24 hours incubation
# From the text: as §1, §2, §3
# [18] = tested on: HFW (Human fibroblast); test: MTT cytotoxicity, HFW; assay type: cell-based; settings: 24 hours incubation
# From the text: as §1, §2, §4, §3
# [19] = read-out: Serum stability (residual peptide)
Compound,IC50 [1],IC50 [2],IC50 [3],IC50 [4],IC50 [5],IC50 [6],IC50 [7],IC50 [8],Serum stability (residual peptide) ([9]; 0 hr),"remaining at 0.5 h [9, 19]","remaining at 2 h [9, 19]","remaining at 4 h [9, 19]","remaining at 6 h [9, 19]","remaining at 8 h [9, 19]",IC50 [10],IC50 [11],IC50 [12],IC50 [13],IC50 [14],IC50 [15],further results
"CC(C)C[C@H](NC(=O)[C@H](Cc1ccc2ccccc2c1)NC(=O)[C@H](CCCCN)NC(=O)[C@H](CC(C)C)NC(=O)[C@H](Cc1c[nH]c2ccccc12)NC(=O)[C@H](CCCCN)NC(=O)[C@H](CCCNC(=N)N)NC(=O)[C@H](Cc1c[nH]c2ccccc12)NC(=O)[C@H](CCCCN)NC(=O)[C@H](CCCCN)NC(=O)[C@H](CCCNC(=N)N)NC(=O)[C@H](CCCNC(=N)N)NC(=O)[C@H](CCCCN)NC(=O)[C@H](CCCCN)NC(=O)[C@H](CCCCN)NC(=O)[C@@H](N)CCCCN)C(=O)N[C@@H](C)C(=O)N[C@@H](CCCCN)C(=O)N[C@@H](CCCCN)C(N)=O [SEQ ID NO: 8, KKKK-RR-KK-WRK-WLK-Nal-LA-KK-NH2] (HELM PEPTIDE1{K.K.K.K.R.R.K.K.W.R.K.W.L.K.[O=C([C@H](Cc1ccc2ccccc2c1)N[*:1])[*:2]].L.A.K.K.[am]}$$$$V2.0; N-terminus assumed)",3.98 µM,8.18 µM,3.59 µM,1.58 µM,5.97 µM,5.6 µM,37.6 µM,3.49 µM,100.00%,105%,106%,70.4%,71.3%,66.5%,9.73 µM,2.3 µM,5.3 µM,2.66 µM,3.3 µM,3.16 µM,"remaining at 1 h ([9]; 1 hr, read-out: Serum stability (residual peptide)): 77.4%; IC50 [16]: 3.59 µM; IC50 [17]: 3.16 µM; IC50 [18]: 7.29 µM"
"KKKKRRKKWRKWLKWLAKK-NH2 [SEQ ID NO: 7, KKKK-RR-KK-WRK-WLK-WLA-KK-NH2]",7.67 µM,12.1 µM,4.92 µM,2.93 µM,10.2 µM,3.95 µM,50.5 µM,5.73 µM,100.00%,101%,72.1%,59.5%,54.4%,44.4%,15.3 µM,3.3 µM,9.06 µM,10.6 µM,6.16 µM,6.16 µM,"Serum stability (residual peptide) ([9]; 1 hr): 123.30%; metabolised at 8 h ([9]; after eight hours, read-out: Decrease of peptide in serum): ~56%; metabolised at 4 h ([9]; at the fourth hour, read-out: Decrease of peptide in serum): ~40%; IC50 [16]: 4.01 µM; IC50 [17]: 7.13 µM; IC50 [18]: 12 µM"
